# Several values for one entry are separate records, joined by “and”; a condition that tells them apart may be missing. Identical values can stand only once. HELM strings list units from the 5' end as sugar, base in round brackets, then linkage (d deoxyribose, r ribose, m 2'-O-methyl, p phosphodiester). Strings are as the collection lists them, not checked against the first reports. ss, as = sense and antisense strand; [fl2r] = 2'-fluoro
# Conditions: siRNA
# Also: test system not given here.
substance,measurement,value
RNA1{r(A)p.r(A)p.r(C)p.r(C)p.[fl2r](C)p.r(A)p.r(C)p.r(C)p.r(A)p.r(C)p.r(A)p.r(G)p.r(C)p.[fl2r](U)p.r(A)p.r(G)p.r(A)p.r(A)p.r(C)p.r(U)p.r(U)}|RNA2{r(G)p.r(U)p.r(U)p.r(C)p.[fl2r](U)p.[fl2r](A)p.r(G)p.r(C)p.[fl2r](U)p.r(G)p.r(U)p.r(G)p.r(G)p.r(U)p.r(G)p.r(G)p.r(G)p.r(U)p.r(U)p.r(U)p.r(U)}$$$RNA1{StrandType:ss}|RNA2{StrandType:as}$,target mRNA knockdown,86%
RNA1{r(A)p.r(A)p.r(C)p.r(C)p.m(C)p.r(A)p.r(A)p.r(A)p.r(G)p.r(G)p.r(G)p.m(G)p.r(A)p.r(G)p.r(U)p.m(U)p.r(G)p.r(C)p.r(U)p.r(T)p.r(T)}|RNA2{r(A)p.r(G)p.m(C)p.r(A)p.r(A)p.r(C)p.r(U)p.r(C)p.r(C)p.r(C)p.r(C)p.r(U)p.r(U)p.m(U)p.r(G)p.r(G)p.r(G)p.r(U)p.r(U)p.r(T)p.r(T)}$$$RNA1{StrandType:ss}|RNA2{StrandType:as}$,target mRNA knockdown,92%
RNA1{r(A)p.r(A)p.r(C)p.r(C)p.r(C)p.r(A)p.r(A)p.r(A)p.r(G)p.r(G)p.r(G)p.r(G)p.r(A)p.r(G)p.r(U)p.m(U)p.r(G)p.r(C)p.r(U)p.r(T)p.r(T)}|RNA2{r(A)p.r(G)p.r(C)p.r(A)p.r(A)p.r(C)p.r(U)p.r(C)p.r(C)p.r(C)p.r(C)p.r(U)p.r(U)p.m(U)p.r(G)p.r(G)p.r(G)p.r(U)p.r(U)p.r(T)p.r(T)}$$$RNA1{StrandType:ss}|RNA2{StrandType:as}$,target mRNA knockdown,83%
RNA1{r(A)p.r(A)p.r(C)p.r(C)p.r(C)p.r(A)p.r(C)p.r(C)p.r(A)p.r(C)p.r(A)p.[fl2r](G)p.r(C)p.[fl2r](U)p.[fl2r](A)p.[fl2r](G)p.r(A)p.r(A)p.r(C)p.r(U)p.r(U)}|RNA2{r(A)p.r(A)p.r(G)p.r(U)p.r(U)p.r(C)p.r(U)p.r(A)p.r(G)p.r(C)p.r(U)p.r(G)p.r(U)p.r(G)p.r(G)p.r(U)p.r(G)p.r(G)p.r(G)p.r(U)p.r(U)}$$$RNA1{StrandType:ss}|RNA2{StrandType:as}$,target mRNA knockdown,75%
RNA1{r(A)p.r(A)p.r(C)p.r(C)p.r(C)p.r(A)p.r(C)p.r(C)p.r(A)p.r(C)p.r(A)p.r(G)p.r(C)p.[fl2r](U)p.[fl2r](A)p.r(G)p.r(A)p.r(A)p.r(C)p.r(U)p.r(U)}|RNA2{r(A)p.r(A)p.r(G)p.r(U)p.r(U)p.r(C)p.[fl2r](U)p.[fl2r](A)p.r(G)p.r(C)p.r(U)p.r(G)p.r(U)p.r(G)p.r(G)p.r(U)p.r(G)p.r(G)p.r(G)p.r(U)p.r(U)}$$$RNA1{StrandType:ss}|RNA2{StrandType:as}$,target mRNA knockdown,57%
RNA1{r(A)p.r(A)p.r(C)p.r(C)p.r(C)p.r(A)p.r(C)p.r(C)p.r(A)p.r(C)p.r(A)p.r(G)p.r(C)p.m(U)p.m(A)p.r(G)p.r(A)p.r(A)p.r(C)p.m(U)p.m(U)}|RNA2{r(A)p.r(A)p.r(G)p.m(U)p.m(U)p.r(C)p.m(U)p.m(A)p.r(G)p.r(C)p.m(U)p.r(G)p.m(U)p.r(G)p.r(G)p.m(U)p.r(G)p.r(G)p.r(G)p.m(U)p.m(U)}$$$RNA1{StrandType:ss}|RNA2{StrandType:as}$,target mRNA knockdown,24%
RNA1{r(A)p.r(A)p.r(C)p.r(C)p.r(C)p.r(A)p.r(C)p.r(C)p.r(A)p.r(C)p.r(A)p.r(G)p.r(C)p.m(U)p.m(A)p.r(G)p.r(A)p.r(A)p.r(C)p.m(U)p.m(U)}|RNA2{r(A)p.r(A)p.r(G)p.r(U)p.r(U)p.r(C)p.m(U)p.m(A)p.r(G)p.r(C)p.r(U)p.r(G)p.r(U)p.r(G)p.r(G)p.r(U)p.r(G)p.r(G)p.r(G)p.r(U)p.r(U)}$$$RNA1{StrandType:ss}|RNA2{StrandType:as}$,target mRNA knockdown,51%
RNA1{r(A)p.r(A)p.r(C)p.r(C)p.r(C)p.r(A)p.r(C)p.r(C)p.r(A)p.r(C)p.r(A)p.r(G)p.r(C)p.m(U)p.m(A)p.r(G)p.r(A)p.r(A)p.r(C)p.r(U)p.r(U)}|RNA2{r(A)p.r(A)p.r(G)p.r(U)p.r(U)p.r(C)p.r(U)p.r(A)p.r(G)p.r(C)p.r(U)p.r(G)p.r(U)p.r(G)p.r(G)p.r(U)p.r(G)p.r(G)p.r(G)p.r(U)p.r(U)}$$$RNA1{StrandType:ss}|RNA2{StrandType:as}$,target mRNA knockdown,79%
RNA1{r(A)p.r(A)p.r(C)p.r(C)p.r(C)p.r(A)p.r(C)p.r(C)p.r(A)p.r(C)p.r(A)p.r(G)p.r(C)p.m(U)p.r(A)p.r(G)p.r(A)p.r(A)p.r(C)p.m(U)p.m(U)}|RNA2{r(A)p.r(A)p.r(G)p.r(U)p.r(U)p.r(C)p.m(U)p.r(A)p.r(G)p.r(C)p.r(U)p.r(G)p.r(U)p.r(G)p.r(G)p.r(U)p.r(G)p.r(G)p.r(G)p.r(U)p.r(U)}$$$RNA1{StrandType:ss}|RNA2{StrandType:as}$,target mRNA knockdown,81%
RNA1{r(A)p.r(A)p.r(C)p.r(C)p.r(C)p.r(A)p.r(C)p.r(C)p.r(A)p.r(C)p.r(A)p.r(G)p.r(C)p.m(U)p.r(A)p.r(G)p.r(A)p.r(A)p.r(C)p.m(U)p.m(U)}|RNA2{r(A)p.r(A)p.r(G)p.r(U)p.r(U)p.r(C)p.r(U)p.r(A)p.r(G)p.r(C)p.r(U)p.r(G)p.r(U)p.r(G)p.r(G)p.r(U)p.r(G)p.r(G)p.r(G)p.r(U)p.r(U)}$$$RNA1{StrandType:ss}|RNA2{StrandType:as}$,target mRNA knockdown,81%
RNA1{r(A)p.r(A)p.r(C)p.r(C)p.r(C)p.r(A)p.r(C)p.r(C)p.r(A)p.r(C)p.r(A)p.r(G)p.r(C)p.m(U)p.r(A)p.r(G)p.r(A)p.r(A)p.r(C)p.r(U)p.r(U)}|RNA2{r(A)p.r(A)p.r(G)p.r(U)p.r(U)p.r(C)p.r(U)p.r(A)p.r(G)p.r(C)p.r(U)p.r(G)p.r(U)p.r(G)p.r(G)p.r(U)p.r(G)p.r(G)p.r(G)p.r(U)p.r(U)}$$$RNA1{StrandType:ss}|RNA2{StrandType:as}$,target mRNA knockdown,84% and 82%
RNA1{r(A)p.r(A)p.r(C)p.r(C)p.r(C)p.r(A)p.r(C)p.r(C)p.r(A)p.r(C)p.r(A)p.r(G)p.r(C)p.r(U)p.r(A)p.r(G)p.r(A)p.r(A)p.r(C)p.r(U)p.r(U)}|RNA2{r(A)p.r(A)p.m(G)p.m(U)p.m(U)p.r(C)p.m(U)p.r(A)p.m(G)p.r(C)p.m(U)p.m(G)p.m(U)p.m(G)p.m(G)p.m(U)p.m(G)p.m(G)p.r(G)p.m(U)p.m(U)}$$$RNA1{StrandType:ss}|RNA2{StrandType:as}$,target mRNA knockdown,15%
RNA1{r(A)p.r(A)p.r(C)p.r(C)p.r(C)p.r(A)p.r(C)p.r(C)p.r(A)p.r(C)p.r(A)p.r(G)p.r(C)p.r(U)p.r(A)p.r(G)p.r(A)p.r(A)p.r(C)p.r(U)p.r(U)}|RNA2{r(A)p.r(A)p.r(G)p.[fl2r](U)p.[fl2r](U)p.r(C)p.[fl2r](U)p.r(A)p.r(G)p.r(C)p.r(U)p.r(G)p.[fl2r](U)p.r(G)p.r(G)p.[fl2r](U)p.r(G)p.r(G)p.r(G)p.[fl2r](U)p.[fl2r](U)}$$$RNA1{StrandType:ss}|RNA2{StrandType:as}$,target mRNA knockdown,14%
RNA1{r(A)p.r(A)p.r(C)p.r(U)p.r(C)p.[fl2r](U)p.r(A)p.r(C)p.[fl2r](U)p.r(G)p.[fl2r](U)p.r(G)p.r(G)p.r(A)p.r(G)p.r(U)p.r(C)p.r(G)p.r(G)p.r(T)p.r(T)}|RNA2{r(C)p.r(C)p.r(G)p.r(A)p.r(C)p.r(U)p.r(C)p.[fl2r](C)p.r(A)p.[fl2r](C)p.r(A)p.r(G)p.[fl2r](U)p.r(A)p.r(G)p.r(A)p.r(G)p.r(U)p.r(U)p.r(T)p.r(T)}$$$RNA1{StrandType:ss}|RNA2{StrandType:as}$,target mRNA knockdown,65%
RNA1{r(A)p.r(A)p.r(C)p.r(U)p.r(C)p.m(U)p.r(A)p.r(C)p.m(U)p.r(G)p.m(U)p.r(G)p.r(G)p.r(A)p.r(G)p.r(U)p.r(C)p.r(G)p.r(G)p.r(T)p.r(T)}|RNA2{r(C)p.r(C)p.r(G)p.r(A)p.r(C)p.r(U)p.r(C)p.m(C)p.r(A)p.r(C)p.r(A)p.r(G)p.m(U)p.r(A)p.r(G)p.r(A)p.r(G)p.r(U)p.r(U)p.r(T)p.r(T)}$$$RNA1{StrandType:ss}|RNA2{StrandType:as}$,target mRNA knockdown,68%
RNA1{r(A)p.r(A)p.r(C)p.r(U)p.r(C)p.m(U)p.r(A)p.r(C)p.r(U)p.r(G)p.r(U)p.r(G)p.r(G)p.r(A)p.r(G)p.r(U)p.r(C)p.r(G)p.r(G)p.r(T)p.r(T)}|RNA2{r(C)p.r(C)p.r(G)p.r(A)p.r(C)p.r(U)p.r(C)p.r(C)p.r(A)p.r(C)p.r(A)p.r(G)p.m(U)p.r(A)p.r(G)p.r(A)p.r(G)p.r(U)p.r(U)p.r(T)p.r(T)}$$$RNA1{StrandType:ss}|RNA2{StrandType:as}$,target mRNA knockdown,69%
RNA1{r(A)p.r(A)p.r(C)p.r(U)p.r(C)p.r(U)p.r(A)p.r(C)p.[fl2r](U)p.r(G)p.r(U)p.r(G)p.r(G)p.r(A)p.r(G)p.r(U)p.r(C)p.r(G)p.r(G)p.r(T)p.r(T)}|RNA2{r(C)p.r(C)p.r(G)p.r(A)p.r(C)p.r(U)p.r(C)p.[fl2r](C)p.r(A)p.r(C)p.r(A)p.r(G)p.[fl2r](U)p.r(A)p.r(G)p.r(A)p.r(G)p.r(U)p.r(U)p.r(T)p.r(T)}$$$RNA1{StrandType:ss}|RNA2{StrandType:as}$,target mRNA knockdown,72%
RNA1{r(A)p.r(A)p.r(C)p.r(U)p.r(U)p.r(C)p.m(U)p.r(G)p.r(G)p.r(G)p.r(A)p.r(G)p.r(C)p.r(C)p.r(U)p.r(C)p.m(C)p.r(A)p.r(A)p.r(T)p.r(T)}|RNA2{r(U)p.m(U)p.r(G)p.r(G)p.r(A)p.r(G)p.r(G)p.r(C)p.r(U)p.r(C)p.r(C)p.m(C)p.r(A)p.r(G)p.r(A)p.r(A)p.r(G)p.r(U)p.r(U)p.r(T)p.r(T)}$$$RNA1{StrandType:ss}|RNA2{StrandType:as}$,target mRNA knockdown,69%
RNA1{r(A)p.r(A)p.r(C)p.r(U)p.r(U)p.r(C)p.r(U)p.r(G)p.r(G)p.r(G)p.r(A)p.r(G)p.r(C)p.r(C)p.r(U)p.r(C)p.m(C)p.r(A)p.r(A)p.r(T)p.r(T)}|RNA2{r(U)p.r(U)p.r(G)p.r(G)p.r(A)p.r(G)p.r(G)p.r(C)p.r(U)p.r(C)p.r(C)p.m(C)p.r(A)p.r(G)p.r(A)p.r(A)p.r(G)p.r(U)p.r(U)p.r(T)p.r(T)}$$$RNA1{StrandType:ss}|RNA2{StrandType:as}$,target mRNA knockdown,73%
RNA1{r(A)p.r(A)p.r(G)p.[fl2r](U)p.r(A)p.r(G)p.r(U)p.r(C)p.r(C)p.r(C)p.[fl2r](C)p.r(C)p.r(U)p.[fl2r](U)p.r(G)p.r(A)p.r(A)p.r(G)p.r(A)p.r(T)p.r(T)}|RNA2{r(U)p.r(C)p.r(U)p.r(U)p.[fl2r](C)p.r(A)p.r(A)p.r(G)p.r(G)p.r(G)p.r(G)p.r(G)p.r(A)p.r(C)p.[fl2r](U)p.r(A)p.r(C)p.r(U)p.r(U)p.r(T)p.r(T)}$$$RNA1{StrandType:ss}|RNA2{StrandType:as}$,target mRNA knockdown,64%
